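How tested: cells in 96-well plates exposed to compound for 48 hours at five concentrations. Definition used: TGI = concentration required for complete inhibition of growth.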
How the values were obtained:
Experiment in all cases: inhibition of tumour cell growth, NCI panel, 48 h
HCT-15 colon = tested on: HCT-15 colon
SNB-75 CNS = tested on: SNB-75 CNS
HOP-62 NSCLC = tested on: HOP-62 NSCLC
HOP-92 NSCLC = tested on: HOP-92 NSCLC
MOLT-4 leukemia = tested on: MOLT-4 leukemia
786-0 renal = tested on: 786-0 renal
NCI-H460 lung = tested on: NCI-H460 lung
LOX IMVI melanoma = tested on: LOX IMVI melanoma
HL-60(TB) leukemia = tested on: HL-60(TB) leukemia
SK-MEL-28 melanoma = tested on: SK-MEL-28 melanoma
HCC-2998 colon = tested on: HCC-2998 colon
MALME-3M melanoma = tested on: MALME-3M melanoma
SK-MEL-2 melanoma = tested on: SK-MEL-2 melanoma
NCI-H226 lung = tested on: NCI-H226 lung

Structure (SMILES)	TGI (HCT-15 colon) [µM]	TGI (SNB-75 CNS) [µM]	TGI (HOP-62 NSCLC) [µM]	TGI (HOP-92 NSCLC) [µM]	TGI (MOLT-4 leukemia) [µM]	TGI (786-0 renal) [µM]	TGI (NCI-H460 lung) [µM]	TGI (LOX IMVI melanoma) [µM]	TGI (HL-60(TB) leukemia) [µM]	TGI (SK-MEL-28 melanoma) [µM]	TGI (HCC-2998 colon) [µM]	TGI (MALME-3M melanoma) [µM]	TGI (SK-MEL-2 melanoma) [µM]	TGI (NCI-H226 lung) [µM]
COc1cc2oc(=O)cc(C)c2cc1O	> 100	> 100	> 100	> 100	> 100	> 100	> 100	> 100	> 100	> 100	> 100	> 100	> 100	> 100
CCO[C@@]1(COCc2ccccc2)OC(=O)C[C@@H]1N1C(=O)OC[C@@H]1c1ccccc1	> 100	> 100	73	> 100	> 100	> 100	> 100	> 100	> 100	> 100	> 100	> 100	> 100	> 100
COc1ccc(NC(=O)CC(=O)n2nc(C)c(N=Nc3cccc(C)c3)c2C)cc1	> 100	> 100	> 100	> 100	> 100	> 100	> 100	> 100	> 100	> 100	> 100	> 100	> 100	> 100
